This note sets out measurements from ChEMBL document CHEMBL5465560, “Selectivity Literature for EUbOPEN Chemogenomic Library” (2024).

For test [1], the target named is T1, Mitogen-activated protein kinase kinase kinase 7 (Homo sapiens) (UniProt O43318).
T1 sequence (whole entry): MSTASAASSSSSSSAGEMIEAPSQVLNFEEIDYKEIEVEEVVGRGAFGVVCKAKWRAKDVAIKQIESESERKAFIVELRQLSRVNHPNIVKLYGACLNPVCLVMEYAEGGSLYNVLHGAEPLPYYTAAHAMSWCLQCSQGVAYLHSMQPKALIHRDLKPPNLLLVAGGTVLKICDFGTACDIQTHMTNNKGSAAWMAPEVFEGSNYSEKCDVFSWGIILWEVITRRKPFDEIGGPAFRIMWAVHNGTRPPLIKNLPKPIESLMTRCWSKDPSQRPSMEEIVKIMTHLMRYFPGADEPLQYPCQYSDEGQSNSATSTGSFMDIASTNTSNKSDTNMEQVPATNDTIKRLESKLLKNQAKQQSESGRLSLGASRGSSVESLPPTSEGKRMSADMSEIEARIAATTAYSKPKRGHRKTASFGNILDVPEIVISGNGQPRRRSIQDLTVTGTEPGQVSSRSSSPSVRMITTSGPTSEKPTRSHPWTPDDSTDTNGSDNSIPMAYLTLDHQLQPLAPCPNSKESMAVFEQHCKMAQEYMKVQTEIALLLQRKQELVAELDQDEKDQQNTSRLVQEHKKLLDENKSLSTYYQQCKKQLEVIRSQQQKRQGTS
The test can be described thus: Selectivity interaction (Ambit KINOMEscan and KiNATiv profiling in Jurkat cells) EUB0000090b MAP3K7. The format is cell-based. The conditions noted are these: at 1 µM.

The target of test [2] is T2, Calcium/calmodulin-dependent protein kinase type IV (Homo sapiens) (UniProt Q16566).
T2 sequence (whole entry): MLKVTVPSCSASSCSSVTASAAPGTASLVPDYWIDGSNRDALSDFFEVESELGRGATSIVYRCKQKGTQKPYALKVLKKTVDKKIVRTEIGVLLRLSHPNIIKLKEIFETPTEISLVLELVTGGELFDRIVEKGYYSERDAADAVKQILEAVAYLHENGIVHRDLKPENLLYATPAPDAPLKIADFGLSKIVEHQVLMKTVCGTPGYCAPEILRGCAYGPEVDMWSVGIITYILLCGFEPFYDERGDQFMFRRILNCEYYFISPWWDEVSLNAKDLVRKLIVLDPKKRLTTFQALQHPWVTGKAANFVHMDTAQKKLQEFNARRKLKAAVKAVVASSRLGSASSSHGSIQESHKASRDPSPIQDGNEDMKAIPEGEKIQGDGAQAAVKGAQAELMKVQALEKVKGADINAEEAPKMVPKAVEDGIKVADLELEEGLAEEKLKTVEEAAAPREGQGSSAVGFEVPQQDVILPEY
The test can be described thus: Selectivity interaction (KinomeScan (DiscoverX)) EUB0000655a CAMK4. The conditions noted are these: at 10 µM.

For test [3], the target named is T3, Protein arginine N-methyltransferase 9 (Homo sapiens) (UniProt Q6P2P2).
T3 sequence (whole entry): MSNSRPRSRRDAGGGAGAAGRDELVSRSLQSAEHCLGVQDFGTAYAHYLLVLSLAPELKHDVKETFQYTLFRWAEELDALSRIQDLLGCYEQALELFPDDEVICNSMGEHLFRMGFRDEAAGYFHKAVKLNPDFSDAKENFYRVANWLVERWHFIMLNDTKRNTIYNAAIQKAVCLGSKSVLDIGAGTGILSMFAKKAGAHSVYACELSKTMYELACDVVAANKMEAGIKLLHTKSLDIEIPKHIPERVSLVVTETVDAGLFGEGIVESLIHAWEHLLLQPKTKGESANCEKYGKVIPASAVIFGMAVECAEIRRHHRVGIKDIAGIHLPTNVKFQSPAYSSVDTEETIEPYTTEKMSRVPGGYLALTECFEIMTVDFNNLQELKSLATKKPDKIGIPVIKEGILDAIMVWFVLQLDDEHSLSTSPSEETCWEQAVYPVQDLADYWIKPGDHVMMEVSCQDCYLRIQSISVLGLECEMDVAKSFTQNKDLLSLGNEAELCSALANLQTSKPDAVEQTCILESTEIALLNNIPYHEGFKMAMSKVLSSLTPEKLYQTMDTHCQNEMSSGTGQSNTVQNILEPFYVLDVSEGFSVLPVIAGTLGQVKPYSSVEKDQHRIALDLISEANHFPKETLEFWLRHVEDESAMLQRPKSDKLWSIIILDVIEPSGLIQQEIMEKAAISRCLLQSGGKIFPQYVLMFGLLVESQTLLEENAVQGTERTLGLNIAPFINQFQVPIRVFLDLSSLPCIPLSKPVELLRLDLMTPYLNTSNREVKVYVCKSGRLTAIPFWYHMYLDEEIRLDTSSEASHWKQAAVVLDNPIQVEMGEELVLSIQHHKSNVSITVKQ
Briefly: Selectivity interaction (Transferase panel (protein, RNA, and DNA methyltransferases. and EP300 (acetyltransferase))) EUB0000270b PRMT9.

In test [4] the target is Protein polybromo-1 (Homo sapiens) (UniProt Q86U86). The test can be described thus: Selectivity interaction (Bromodomain panel (DSF asssay)) EUB0000270b PBRM1.
Sequence of Protein polybromo-1 (Homo sapiens) (Q86U86 whole entry): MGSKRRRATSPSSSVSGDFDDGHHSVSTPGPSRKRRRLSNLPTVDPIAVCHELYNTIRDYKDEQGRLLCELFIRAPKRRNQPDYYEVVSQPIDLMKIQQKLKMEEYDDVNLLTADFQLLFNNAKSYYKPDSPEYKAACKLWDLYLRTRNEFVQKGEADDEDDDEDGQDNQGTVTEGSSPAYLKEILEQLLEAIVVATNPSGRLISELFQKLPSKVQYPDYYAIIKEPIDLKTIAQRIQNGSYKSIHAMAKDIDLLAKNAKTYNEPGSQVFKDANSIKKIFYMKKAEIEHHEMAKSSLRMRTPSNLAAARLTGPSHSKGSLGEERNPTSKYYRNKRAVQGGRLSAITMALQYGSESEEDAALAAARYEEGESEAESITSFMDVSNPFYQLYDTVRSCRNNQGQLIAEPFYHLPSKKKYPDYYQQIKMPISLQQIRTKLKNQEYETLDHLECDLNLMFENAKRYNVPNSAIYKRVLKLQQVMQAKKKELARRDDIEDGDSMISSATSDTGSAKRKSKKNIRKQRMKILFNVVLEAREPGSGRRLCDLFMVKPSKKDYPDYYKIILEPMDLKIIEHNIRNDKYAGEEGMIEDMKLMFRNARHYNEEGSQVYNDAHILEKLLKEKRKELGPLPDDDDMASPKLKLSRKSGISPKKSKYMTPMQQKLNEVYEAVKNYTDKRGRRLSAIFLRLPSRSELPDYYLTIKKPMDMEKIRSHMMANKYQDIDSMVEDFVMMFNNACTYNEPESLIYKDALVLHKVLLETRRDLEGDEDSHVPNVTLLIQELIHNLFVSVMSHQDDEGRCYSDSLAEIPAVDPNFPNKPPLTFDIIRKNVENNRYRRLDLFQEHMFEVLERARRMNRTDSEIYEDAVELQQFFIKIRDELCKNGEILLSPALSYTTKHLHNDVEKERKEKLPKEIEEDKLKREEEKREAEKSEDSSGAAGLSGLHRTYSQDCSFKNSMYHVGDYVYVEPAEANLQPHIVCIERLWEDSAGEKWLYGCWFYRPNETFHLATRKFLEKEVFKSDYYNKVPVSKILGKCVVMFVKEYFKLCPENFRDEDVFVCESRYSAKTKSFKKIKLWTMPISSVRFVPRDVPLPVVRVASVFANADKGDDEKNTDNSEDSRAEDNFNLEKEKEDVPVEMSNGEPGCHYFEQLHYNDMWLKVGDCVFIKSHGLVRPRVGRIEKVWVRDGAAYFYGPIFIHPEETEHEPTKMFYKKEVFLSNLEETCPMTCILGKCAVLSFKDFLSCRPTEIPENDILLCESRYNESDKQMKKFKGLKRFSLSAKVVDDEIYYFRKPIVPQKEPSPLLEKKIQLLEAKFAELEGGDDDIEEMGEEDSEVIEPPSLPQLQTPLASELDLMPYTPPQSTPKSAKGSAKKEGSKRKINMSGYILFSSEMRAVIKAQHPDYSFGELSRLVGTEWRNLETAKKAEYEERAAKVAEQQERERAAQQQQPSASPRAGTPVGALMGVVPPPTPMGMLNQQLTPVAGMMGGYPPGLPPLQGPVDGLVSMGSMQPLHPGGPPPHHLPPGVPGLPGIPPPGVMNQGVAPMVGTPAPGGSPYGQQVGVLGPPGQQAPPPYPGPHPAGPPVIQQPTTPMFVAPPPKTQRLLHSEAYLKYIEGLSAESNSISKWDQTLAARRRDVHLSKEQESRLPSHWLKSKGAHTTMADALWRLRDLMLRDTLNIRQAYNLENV
For test [5], the target named is T4, Inhibitor of nuclear factor kappa-B kinase subunit alpha (Homo sapiens) (UniProt O15111).
T4 sequence (whole entry): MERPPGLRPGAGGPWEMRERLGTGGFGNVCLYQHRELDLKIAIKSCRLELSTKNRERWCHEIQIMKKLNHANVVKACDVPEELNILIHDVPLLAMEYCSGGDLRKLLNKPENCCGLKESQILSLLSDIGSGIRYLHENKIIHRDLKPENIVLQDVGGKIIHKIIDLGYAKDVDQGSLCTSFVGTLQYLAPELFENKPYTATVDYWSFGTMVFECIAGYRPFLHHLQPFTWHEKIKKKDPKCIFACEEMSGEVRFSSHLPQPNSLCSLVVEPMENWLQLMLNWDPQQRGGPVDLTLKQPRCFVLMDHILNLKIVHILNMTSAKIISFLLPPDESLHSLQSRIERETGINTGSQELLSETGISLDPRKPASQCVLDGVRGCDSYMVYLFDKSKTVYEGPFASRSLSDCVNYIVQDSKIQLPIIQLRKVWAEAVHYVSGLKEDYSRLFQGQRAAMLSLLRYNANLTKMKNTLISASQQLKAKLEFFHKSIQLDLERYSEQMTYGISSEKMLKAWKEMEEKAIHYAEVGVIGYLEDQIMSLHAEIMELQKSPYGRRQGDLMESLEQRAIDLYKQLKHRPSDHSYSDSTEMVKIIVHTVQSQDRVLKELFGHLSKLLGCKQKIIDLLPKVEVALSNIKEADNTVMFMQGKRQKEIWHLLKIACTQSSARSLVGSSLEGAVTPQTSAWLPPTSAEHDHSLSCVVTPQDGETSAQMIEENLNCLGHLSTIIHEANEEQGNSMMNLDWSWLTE
Briefly: Selectivity interaction (KinomeScan (DiscoverX)) EUB0000045b CHUK.

SMILES strings stand for the structures.

On to `CN(C)C/C=C/C(=O)Nc1ccc(C(=O)N2CCCC(Nc3ncc(Cl)c(-c4c[nH]c5ccccc45)n3)C2)cc1` (configuration not stated), for which the % of control in test [1] turned out to be 90%.

For `CN(C)CCOc1ccc(-c2nc(-c3ccncc3)c(-c3ccc4c(c3)CC/C4=N\O)[nH]2)cc1`, in test [2], the % of control was determined as 87%.

With `Cc1cc(CN)cc(C)c1-c1ncn(C)c1-c1cncn1C`, the % activity in test [3] (at 1 µM) is greater than 90%; in test [3] (at 10 µM), greater than 80%. This compound registered a dTM in test [4] of -0.44 K.

On to `C=CC(=O)Nc1cc(-n2c(=O)ccc3cnc4ccc(-c5ccc(NS(C)(=O)=O)cc5)cc4c32)ccc1C`, for which the % of control in test [5] (at 1 µM) and in test [5] (at 10 µM) was 100% each time.
